Tests used:
Type in all cases: in vivo, BALB/cA-nu/nu mouse
[1] = system: Human stomach cancer 4-1ST; assay: Antitumor Test 2, human stomach cancer 4-1ST transplanted mouse; conditions: caudal vein
Excerpt: (§1) Human stomach cancer 4-1ST was subcultured subcutaneously in a BALB/cA-nu/nu mouse (hereinafter, nude mouse). Human stomach cancer 4-1ST was obtained from the Central Institute for Experimental Animals.
(§2) Human stomach cancer 4-1ST was collected subcutaneously from a nude mouse and was cut into blocks each measuring about 3 mm on each side. The tumor blocks thus obtained were transplanted subcutaneously on the dorsal side of nude mice using a trocar. On the 17th day after transplantation, where the average tumor volume had reached about 100 to 200 mm^3, various drugs were administered through the caudal vein. The use and dose (in terms of drug) of the various administered drugs are as follows. In regard to the Example 11 compound, the compound was dissolved in a 5% glucose injectable solution, and the solution was administered once at a dose of 15 mg/kg or 7.5 mg/kg. In regard to the Example 12 compound, the compound was dissolved in a 5% glucose injectable solution, and the solution was administered once at a dose of 30 mg/kg or 15 mg/kg. As a control drug, l-OHP was administered once at a dose of 18 mg/kg, and cisplatin was administered once at a dose of 10 mg/kg. Regarding the amounts of administration of l-OHP and cisplatin and the high amounts of administration of the various Example compounds, the maximum tolerable doses (MTD doses) were employed for all of the compounds. After the administration, the major axis (L) and the minor axis (W) of the tumor were measured over time using calipers, and the tumor volume (L×W×W×0.5) was calculated. The test was performed by employing four animals per group for all of a non-administered group as well as various drug-administered groups. During the period from the initiation of administration to the 21st day after administration, the relative tumor volume (T/C (%)) of each drug-administered group based on the relative tumor volume of a non-drug-administered group as 100 was calculated by the following formula as an index for the antitumor effect. T/C(%)=Relative tumor volume of administered group/relative tumor volume of non-administered group×100 Formula: […]

[2] = system: Human stomach cancer 4-1ST; assay: Antitumor Test 1, human stomach cancer 4-1ST transplanted mouse; conditions: caudal vein
Excerpt: as §1
(§3) Human stomach cancer 4-1ST was collected subcutaneously from a nude mouse and was finely cut into blocks each measuring about 3 mm on each side. The tumor blocks thus obtained were subcutaneously transplanted into the dorsal side of nude mice using a trocar. On the 15th day after transplantation, where the average tumor volume had reached about 100 to 200 mm^3, various drugs were administered through the caudal vein. The use and dose (in terms of drug) of the various administered drugs are as follows. In regard to the Example 1 compound, the compound was dissolved in a 5% glucose injectable solution, and the solution was administered once at a dose of 25 mg/kg or 12.5 mg/kg. In regard to the Example 2 compound, the compound was dissolved in a 5% glucose injectable solution, and the solution was administered once at a dose of 25 mg/kg or 12.5 mg/kg. In regard to the Example 3 compound, the compound was dissolved in a 5% glucose injectable solution, and the solution was administered once at a dose of 20 mg/kg or 10 mg/kg. In regard to the Example 4 compound, the compound was dissolved in a 5% glucose injectable solution, and the solution was administered once at a dose of 20 mg/kg or 10 mg/kg. In regard to the Example 5 compound, the compound was dissolved in a 5% glucose injectable solution, and the solution was administered once at a dose of 20 mg/kg or 10 mg/kg. As a control drug, l-OHP was administered once at a dose of 20 mg/kg, and cisplatin was administered once at a dose of 10 mg/kg. Regarding the amounts of administration of l-OHP and cisplatin and the high amounts of administration of the various Example compounds, the maximum tolerable doses (MTD doses) were employed for all of the compounds. After the administration, the major axis (L) and the minor axis (W) of the tumor were measured over time using calipers, and the tumor volume (L×W×W×0.5) was calculated. The test was performed by employing four animals per group for all of a non-administered group as well as various drug-administered groups. During the period from the initiation of administration to the 21st day after administration, the relative tumor volume (T/C (%)) of each drug-administered group based on the relative tumor volume of a non-drug-administered group as 100 was calculated by the following formula as an index for the antitumor effect. T/C(%)=Relative tumor volume of administered group/relative tumor volume of non-administered group×100 Formula: […]

[3] = Maximum tolerable dose (MTD dose) in nude mice; conditions: administered once, caudal vein, dose in terms of drug
Procedure: as §3
as §2, with “groups.” for “groups. During the period from the initiation of administration to the 21st day after administration, the relative tumor volume (T/C (%)) of each drug-administered group based on the relative tumor volume of a non-drug-administered group as 100 was calculated by the following formula as an index for the antitumor effect. T/C(%)=Relative tumor volume of administered group/relative tumor volume of non-administered group×100 Formula:”

**Q.** With `N.N.[Cl][Pt][Cl]` [Cisplatin, cisplatin] as the molecule, how does the “T/C (%) in various numbers of days after administration” value (shortened to “T/C (%) in various numbers of days”) ([1]; 10 mg/kg once, day 0) read?
**A.** 100%

**Q.** And the “T/C (%) in various numbers of days” value ([1]; 10 mg/kg once, day 4)?
**A.** 77%

**Q.** And the “T/C (%) in various numbers of days” value ([1]; 10 mg/kg once, day 7)?
**A.** 43%

**Q.** And the “T/C (%) in various numbers of days” value ([1]; 10 mg/kg once, day 11)?
**A.** 32%

**Q.** And the “T/C (%) in various numbers of days” value ([1]; 10 mg/kg once, day 14)?
**A.** 36%

**Q.** What about the “T/C (%) in various numbers of days” value ([1]; 10 mg/kg once, day 18) of the same molecule?
**A.** 37%

**Q.** What about the “T/C (%) in various numbers of days” value ([1]; 10 mg/kg once, day 21) of the same molecule?
**A.** 42%

**Q.** And the “T/C (%) in various numbers of days” value ([2]; 10 mg/kg once, day 0)?
**A.** 100%

**Q.** What about the “T/C (%) in various numbers of days” value ([2]; 10 mg/kg once, day 3) of the same molecule?
**A.** 68%

**Q.** And the “T/C (%) in various numbers of days” value ([2]; 10 mg/kg once, day 5)?
**A.** 50%

**Q.** What about the “T/C (%) in various numbers of days” value ([2]; 10 mg/kg once, day 7) of the same molecule?
**A.** 33%

**Q.** What about the “T/C (%) in various numbers of days” value ([2]; 10 mg/kg once, day 10) of the same molecule?
**A.** 33%

**Q.** What about the “T/C (%) in various numbers of days” value ([2]; 10 mg/kg once, day 14) of the same molecule?
**A.** 29%

**Q.** And the “T/C (%) in various numbers of days” value ([2]; 10 mg/kg once, day 17)?
**A.** 26%

**Q.** What about the “T/C (%) in various numbers of days” value ([2]; 10 mg/kg once, day 21) of the same molecule?
**A.** 22%

**Q.** What about the “maximum tolerable dose (MTD dose)” value ([3]; Antitumor Test 1) of the same molecule?
**A.** 10 mg/kg

**Q.** What about the “maximum tolerable dose (MTD dose)” value ([3]; Antitumor Test 2) of the same molecule?
**A.** 10 mg/kg

**Q.** What about the “maximum tolerable dose (MTD dose)” value ([3]; Antitumor Test 3) of the same molecule?
**A.** 10 mg/kg

**Q.** Which “T/C (%) in various numbers of days” value ([1]; 18 mg/kg once, day 0) does the source give for `O=C1[O][Pt]2([NH][C@@H]3CCCC[C@H]3[NH]2)[O]C1=O` [l-OHP, oxaliplatin] here?
**A.** 100%

**Q.** What about the “T/C (%) in various numbers of days” value ([1]; 18 mg/kg once, day 4) of the same molecule?
**A.** 84%

**Q.** And the “T/C (%) in various numbers of days” value ([1]; 18 mg/kg once, day 7)?
**A.** 52%

**Q.** And the “T/C (%) in various numbers of days” value ([1]; 18 mg/kg once, day 11)?
**A.** 50%

**Q.** And the “T/C (%) in various numbers of days” value ([1]; 18 mg/kg once, day 14)?
**A.** 50%

**Q.** What about the “T/C (%) in various numbers of days” value ([1]; 18 mg/kg once, day 18) of the same molecule?
**A.** 60%

**Q.** What about the “T/C (%) in various numbers of days” value ([1]; 18 mg/kg once, day 21) of the same molecule?
**A.** 57%

**Q.** What about the “T/C (%) in various numbers of days” value ([2]; 20 mg/kg once, day 0) of the same molecule?
**A.** 100%

**Q.** What about the “T/C (%) in various numbers of days” value ([2]; 20 mg/kg once, day 3) of the same molecule?
**A.** 72%

**Q.** What about the “T/C (%) in various numbers of days” value ([2]; 20 mg/kg once, day 5) of the same molecule?
**A.** 57%

**Q.** What about the “T/C (%) in various numbers of days” value ([2]; 20 mg/kg once, day 7) of the same molecule?
**A.** 49%

**Q.** What about the “T/C (%) in various numbers of days” value ([2]; 20 mg/kg once, day 10) of the same molecule?
**A.** 49%

**Q.** And the “T/C (%) in various numbers of days” value ([2]; 20 mg/kg once, day 14)?
**A.** 45%

**Q.** What about the “T/C (%) in various numbers of days” value ([2]; 20 mg/kg once, day 17) of the same molecule?
**A.** 46%

**Q.** What about the “T/C (%) in various numbers of days” value ([2]; 20 mg/kg once, day 21) of the same molecule?
**A.** 41%

**Q.** And the “maximum tolerable dose (MTD dose)” value ([3]; Antitumor Test 1)?
**A.** 20 mg/kg

**Q.** What about the “maximum tolerable dose (MTD dose)” value ([3]; Antitumor Test 2) of the same molecule?
**A.** 18 mg/kg

**Q.** And the “maximum tolerable dose (MTD dose)” value ([3]; Antitumor Test 3)?
**A.** 18 mg/kg

Reference: patent US11033577B2, “Polymer conjugate of hexa-coordinated platinum complex” (priority 2015, dated 2021)
